Experimental data as given in US12059413B2, “Methods of inhibiting viruses using compositions targeting TSG101-ubiquitin interaction” (The Research Foundation for the State University of New York, priority 2016, dated 2024).

Tests used:
[1] = target: T1, Tsg101 UEV domain (Homo sapiens, UniProt Q99816); assay: NMR / LC-MS binding of compound to Tsg101 UEV domain
T1 construct: Tsg101 UEV domain (residues 2-145) was encoded in a pET-28b vector; His6-TEV site (N, cleaved yes); made in house; host or cells: E. coli Rosetta 2 (DE3) pLysS
T1 sequence (Q99816 2-145): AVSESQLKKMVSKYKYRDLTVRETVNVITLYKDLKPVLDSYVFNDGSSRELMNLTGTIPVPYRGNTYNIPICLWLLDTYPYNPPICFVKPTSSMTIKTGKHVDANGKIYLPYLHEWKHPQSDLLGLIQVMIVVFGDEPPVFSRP
Protocol: N16 (20 mM solution, DMSO) was added to Tsg101 UEV domain in a 10:1 ratio (N16 excess).
For binding studies using NMR spectroscopy, the following complexes were made: Tsg101 UEV-N16, UEV-PTAP, UEV-Ub, UEV-N16-PTAP, and UEV-N16-Ub, all in Tsg101 NMR buffer: 20 mM potassium phosphate, 50 mM NaCl, pH 5.8, with UEV concentration of 200 μM.

[2] = target: T1, Tsg101 UEV domain; assay: Tsg101 melting curves with compounds, relative fluorescence (RFU) shift; type: binding; conditions: at 20 uM
Protocol: FIG. 13B. TSG101 binding of prazole compounds. Melting curves of TSG101 with various prazole compounds assayed by relative fluorescence (RFU) shift. Two control compounds, K21 and N20, had no effect at 40 μM on the Tsg101 melting curve.
FIG. 14A-F. The ubiquitin E2 variant (UEV) domain of Tsg101 was purified by attaching it to an N-terminal His tag with a Tobacco Etch Virus nuclear-inclusion-a endopeptidase (TEV) cleavage site and isolating the tagged protein through two consecutive nickel columns. The first nickel column bound the Tsg101 with the His tag. Following cleavage of the His tag, Tsg101 flowed straight through the second column, removing any impurities from the cell lysate that also bound to the column in step 1, as well as the TEV protease enzyme.
F) Dose-dependence of Tsg101 normalized melting curves for N16 (top) and F15 (bottom). At same concentration, N16 shifts the melting curve to a greater extent to the left than F15. Specifically, at 20 uM, N16 caused a 12 degree Tm shift while F15 gave rise a 5 degree Tm shift. This difference correlated with the potency observed in the cell-based assay. The plot for N16 contains two control compounds, K21 and N20, which have no effect at 40 uM on the Tsg101 melting curve.

[3] = system: Gag-Tsg101 co-localization on the plasma membrane; assay: Gag-Tsg101 co-localization by fluorescence microscopy, Pearson's coefficient; type: cell-based
Protocol: FIG. 19A-F. N16 (50 μM) prevents co-localization of Gag and Tsg101 on the plasma membrane. A-E) Fluorescence microscopy images of cells that co-express Tsg101-Myc alone or GagWT-GFP and Tsg101-Myc. Cells grown on coverslips were co-transfected with DNA encoding Tsg101-Myc (A) or Tsg101-Myc and GagWT-GFP (B, D and E) or GagP7L-GFP (C) and treated with F15 (D) or N16 (E). After 24 hr the coverslips were processed for microscopy with Tsg101-Myc detected with anti-Myc antibody and Texas Red secondary antibody as described in Materials & Methods. A) Tsg101-Myc in cells treated with DMSO carrier (top) or N16 (bottom). B-E), Top panels, show signal from Gag-GFP; middle panels, images showing Tsg101-Myc signal; bottom panels, merged images showing signals from Gag-GFP and Tsg101-Myc. Boxes frame a region of the plasma membrane. F) Pearson's coefficient of correlation values determined for the images shown. Error bars indicate the highest values obtained for similar samples. n=6.
FIG. 26A-D. N16 binds covalently to C73 in the Tsg101 UEV domain. A) Activation of N16 to reactive sulfenamide. N16 (i) is converted to intermediates sulfenic acid (ii) and sulfenamide (iii) through acid catalysis to yield a covalently attached N16-Tsg101 UEV complex (iv). B) HNCACB Cβ regions for residues C73, L74, 186 and C87 of Tsg101 without (−) and with (+) N16. C) Examination by fluorescence microscopy of cells co-expressing GagWT-GFP and Tsg101WT-Myc, Tsg101C73A-Myc or Tsg101C87A-Myc in the absence and presence of 50 μM N16. n=3 D) Pearson's coefficient of correlation values.
Hela cells grown on cover slips were transfected with pCMV-Gag-EGFP alone or together with pLLEXP1-hTsg101-myc. Cells were fixed in 4% formaldehyde (Sigma) and permeabilized in 0.1% Triton X-100. Tsg101 was detected in the samples by indirect immunofluorescence using anti-myc Mab and Texas Red anti-mouse IgG. Nuclei were stained with Hoechst. Images were captured on an inverted fluorescence/differential-interference contrast (dic) Zeiss Axiovert 200M deconvolving fluorescence microscope operated by AxioVision Version 4.5 (Zeiss) software and deconvolved by using the constrained iterative method (AxioVision). Protein co-localization was assessed in 40 or more cells by determination of Pearson's coefficient of correlation using Image J software and regarded as significant when a value of 0.6 or higher (equivalent to a 95% level of confidence for that number of cells) was observed (Manders, E. M. M., et al. (1993)).

SMILES	residue bound in Tsg101 UEV (NMR and fluorescence perturbances) [1]	Tm shift of Tsg101 melting curve [2]	reduction of intensity of Gag-Tsg101 co-localization signal [3]	time to complete formation of N16 UEV complex ([1]; 10:1 N16 excess, chemical shift perturbations)	co-localization of Gag and Tsg101C73A-myc ([3]; 50 μM N16)	co-localization of Gag and Tsg101C87A-myc ([3]; 50 μM N16)
COc1ccc2nc([S@@+]([O-])Cc3ncc(C)c(OC)c3C)[nH]c2c1 [F15, esomeprazole]	bind to residue C73	5 degree	~2 fold			
COc1ccc2[nH]c([S+]([O-])Cc3ncc(C)c(OC)c3C)nc2n1 (stereo not drawn) [N16, tenatoprazole]	bind to residue C73	12 degree	~2 fold	2 h	failed to prevent co-localization	effectively eliminated co-localization
